Total protein concentration and total protein data for 3 compounds are collected here from patent US20110311633A1, “Combination of a Silicon Containing Component and a Hormone” (priority 2005, published 2011).

The subject of the assay is Pre-osteoblast cells. The assay is described as follows: Pre-osteoblast cells in oestrogen-free environment, hormone with or without silicon, total protein.

Protocol: The cells for these respective experiments had also been passaged and maintained in media containing no added silicon (for the subsequent E2 or vehicle alone experiments) or containing 50 micromolar silicon (for the subsequent Si or E2+Si experiments).
Thus in experiments identical to those described above at the 48 hour time point, we investigated the effects of 10^−6 M progesterone instead of oestradiol.

For `C[C@]12CC[C@@H]3c4ccc(O)cc4CC[C@H]3[C@@H]1CC[C@@H]2O` [oestradiol], the total protein concentration entry (10^-9 M E2, absence of silicon, varying lengths of time, versus baseline (vehicle), FIG. 2) is recorded as “no effect”.

`CC(=O)[C@H]1CC[C@H]2[C@@H]3CCC4=CC(=O)CC[C@]4(C)[C@H]3CC[C@]12C` [progesterone]: the total protein result (10^-6 M progesterone together with silicon (50 micromolar), 48 hour time point, FIG. 4) was “modest effect”. As for orthosilicic acid, the total protein entry (orthosilicic acid 50 micromolar without E2, oestrogen-free environment, FIG. 2) is listed as “no significant effect”.
